The assay has as its target Beta-secretase 1 (Homo sapiens, UniProt P56817). As to the kind of experiment: In Vitro BACE1 Activity Assay. The note with it: pH 4.5; 22 °C. The procedure: The assay was performed using a 96-well format on a HPLC equipped with four 96-well plate holders. Test compounds were preincubated with enzymes for 30 min, followed by the addition of substrate. The solution was then incubated for an additional 30 min at room temperature. After the reaction was terminated, the solution was filtered, and the filtrate was subjected to HPLC analysis. The substrate and product were monitored by fluorescence detection (340nm excitation, 440 nm emission).

Molecules are shown by their SMILES. pIC50: −log10 of the molar value.

Beta-secretase 1, sequence (P56817 whole entry): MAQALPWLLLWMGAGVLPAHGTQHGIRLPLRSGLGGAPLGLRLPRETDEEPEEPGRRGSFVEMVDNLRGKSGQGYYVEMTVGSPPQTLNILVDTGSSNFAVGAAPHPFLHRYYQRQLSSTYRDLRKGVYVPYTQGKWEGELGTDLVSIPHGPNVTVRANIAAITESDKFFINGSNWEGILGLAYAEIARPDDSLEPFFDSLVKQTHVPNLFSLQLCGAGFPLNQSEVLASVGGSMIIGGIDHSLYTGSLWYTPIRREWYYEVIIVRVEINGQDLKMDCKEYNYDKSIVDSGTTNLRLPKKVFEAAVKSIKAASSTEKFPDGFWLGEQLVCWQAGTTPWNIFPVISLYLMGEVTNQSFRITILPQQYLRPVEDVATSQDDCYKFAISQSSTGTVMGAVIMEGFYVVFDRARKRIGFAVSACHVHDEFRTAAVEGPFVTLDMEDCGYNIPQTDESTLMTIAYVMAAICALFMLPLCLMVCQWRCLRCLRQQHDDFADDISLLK

As for `C[C@H](NC[C@H](Cc1ccccc1)NC(=O)c1cc(C(=O)N[C@H](C)c2ccc(F)cc2)cc(N(C)S(C)(=O)=O)c1)C(=O)N1CCCC1C(=O)O` (stereo partly drawn) [1-[(2S)-2-{[(2S)-2-[(3-{[(1R)-1-(4-fluorophenyl)ethyl]carbamoyl}-5-(N-methylmethanesulfonamido)phenyl)formamido]-3-phenylpropyl]amino}propanoyl]pyrrolidine-2-carboxylic acid], the negative logarithm of the IC50 (pIC50) is 4.76.

`CC(C)CNC(=O)[C@H](C)NC[C@H](Cc1ccccc1)NC(=O)c1cc(/C=C\[C@H]2C[C@@H]2C)cc(N(C)S(C)(=O)=O)c1` [N-[(1S)-1-benzyl-2-({(1S)-1-methyl-2-[(2-methylpropyl)amino]-2-oxoethyl}amino)ethyl]-3-{(Z)-2-[(1S,2S)-2-methylcyclopropyl]ethenyl}-5-[methyl(methylsulfonyl)amino]benzamide] had a pIC50 of 7.70.

As a reminder, the pIC50 is −log10 of the IC50, conventionally taken in molar units. Higher therefore signals a small IC50.

The values are drawn from BindingDB's records for doi:10.1016/j.bmcl.2006.04.076 (Merck Research Laboratories, 2006).
